Data set [1] has as its system exon 7 of SMN1 and/or SMN2. The data set is described as follows: inclusion of exon 7 into mRNA transcribed from the SMN1 and/or SMN2 gene. To be noted: increasing expression of SMN protein in a human subject.
Data set [2] in a line: relative thermodynamic stability of crystal forms (equilibration of suspensions). It counts as physicochemical. As to conditions: for thermodynamic stability of the polymorph: in particular between 5° C. to 65° C. An excerpt:
Alternatively, Form A can be obtained upon equilibration of solid 7-(4,7-diazaspiro[2.5]octan-7-yl)-2-(2,8-dimethylimidazo[1,2-b]pyridazin-6-yl)pyrido[1,2-a]pyrimidin-4-one suspended in organic solvents or a mixture thereof for prolonged time. In particular 7-(4,7-diazaspiro[2.5]octan-7-yl)-2-(2,8-dimethylimidazo[1,2-b]pyridazin-6-yl)pyrido[1,2-a]pyrimidin-4-one can be suspended in ethanol, methyl ethyl ketone, ethyl acetate, or dioxane at ambient temperature or at elevated temperature (e.g. 22 to 65° C.) for 2-3 weeks affording 7-(4,7-diazaspiro[2.5]octan-7-yl)-2-(2,8-dimethylimidazo[1,2-b]pyridazin-6-yl)pyrido[1,2-a]pyrimidin-4-one as Form A.
Form D can be obtained by equilibration of solid 7-(4,7-diazaspiro[2.5]octan-7-yl)-2-(2,8-dimethylimidazo[1,2-b]pyridazin-6-yl)pyrido[1,2-a]pyrimidin-4-one suspended in water or water containing organic solvents for prolonged time. 7-(4,7-diazaspiro[2.5]octan-7-yl)-2-(2,8-dimethylimidazo[1,2-b]pyridazin-6-yl)pyrido[1,2-a]pyrimidin-4-one can be suspended in water or mixtures of organic solvent and water, in particular in ethanol/water mixtures. In particular, the mixture can be left in equilibration for 2-3 weeks in water or in ethanol/water 20/80 v/v at 65° C. to afford 7-(4,7-diazaspiro[2.5]octan-7-yl)-2-(2,8-dimethylimidazo[1,2-b]pyridazin-6-yl)pyrido[1,2-a]pyrimidin-4-one as Form D. In particular, the mixture can be left in equilibration for 2-3 weeks in water or in ethanol/water 20/80 v/v to 50/50 v/v to 80/20 v/v at approx. 22° C. to afford 7-(4,7-diazaspiro[2.5]octan-7-yl)-2-(2,8-dimethylimidazo[1,2-b]pyridazin-6-yl)pyrido[1,2-a]pyrimidin-4-one as Form D.

Data set [3] can be described thus: hygroscopicity (water uptake according to European Pharmacopoeia). Type of data set: physicochemical.
A short description of data set [4]: chemical stability of the solid form. It counts as physicochemical. As to conditions: compared to Form D.

Some results are limits rather than exact numbers.

As to `Cc1cn2nc(-c3cc(=O)n4cc(N5CCNC6(CC6)C5)ccc4n3)cc(C)c2n1` [compound of formula (I), 7-(4,7-diazaspiro[2.5]octan-7-yl)-2-(2,8-dimethylimidazo[1,2-b]pyridazin-6-yl)pyrido[1,2-a]pyrimidin-4-one], in data set [1], the “inclusion of exon 7 of SMN1 and/or SMN2 into mRNA” value was “enhance inclusion of exon 7”.
`Cc1cn2nc(-c3cc(=O)n4cc(N5CCNC6(CC6)C5)ccc4n3)cc(C)c2n1` [Form G, 7-(4,7-diazaspiro[2.5]octan-7-yl)-2-(2,8-dimethylimidazo[1,2-b]pyridazin-6-yl)pyrido[1,2-a]pyrimidin-4-one]: the “thermodynamic stability of the polymorph” value in data set [2] is reported as “metastable polymorph”.
As for `Cc1cn2nc(-c3cc(=O)n4cc(N5CCNC6(CC6)C5)ccc4n3)cc(C)c2n1` [Form A, 7-(4,7-diazaspiro[2.5]octan-7-yl)-2-(2,8-dimethylimidazo[1,2-b]pyridazin-6-yl)pyrido[1,2-a]pyrimidin-4-one], in data set [3], the hygroscopicity result is recorded as “non-hygroscopic to slightly hygroscopic” and the water uptake is on record as below 2%. Also, in data set [4], the chemical stability result is “improved chemical stability”. Also, in data set [2], the “thermodynamic stability of the polymorph” value is “thermodynamic stable polymorph”.
`Cc1cn2nc(-c3cc(=O)n4cc(N5CCNC6(CC6)C5)ccc4n3)cc(C)c2n1` [Form B, 7-(4,7-diazaspiro[2.5]octan-7-yl)-2-(2,8-dimethylimidazo[1,2-b]pyridazin-6-yl)pyrido[1,2-a]pyrimidin-4-one]: the “thermodynamic stability of the polymorph” value in data set [2] is reported as “metastable polymorph”.
Regarding `Cc1cn2nc(-c3cc(=O)n4cc(N5CCNC6(CC6)C5)ccc4n3)cc(C)c2n1` [Form D, 7-(4,7-diazaspiro[2.5]octan-7-yl)-2-(2,8-dimethylimidazo[1,2-b]pyridazin-6-yl)pyrido[1,2-a]pyrimidin-4-one], the “stability of the hydrated form” value in data set [2] (with sufficiently high water activity) was “stable hydrated form”.

Values taken from patent US12122789B2, “Forms of pyrido[1,2-a]pyrimidin-4-one derivatives, its formulation and its process of making” (Hoffmann-La Roche Inc., priority 2018, dated 2024).
